Experimental data from US20240116922A1, “IMIDAZO[1,2-A]PYRIDINE DERIVATIVES AS IRAK4 INHIBITORS AND THEIR USE IN THE TREATMENT OF DISEASE” (BIOGEN MA INC., priority 2020, published 2024).
Values after ≈ are worked out from the molar mass of the structure shown.

How the values were obtained:
[1] = target: IRAK4 (Homo sapiens (Human), UniProt Q9NWZ3); assay: IRAK4 MSD biochemical assay (2-hour 1 mM ATP); conditions: 0.1 nM IRAK4, 1 mM ATP, 2 hour at room temperature
Procedure: The 2-hour 1 mM ATP Biochemical Assay employed a MesoScale Detection (MSD) format.
The activity was quenched with 11 μl of 70 mM EDTA, pH 8.
To detect the phosphorylated biotinylated peptide substrate, 30 μl of the quenched reaction mixture was added to equivalent wells of a 384 well streptavidin coated MesoScale plate (Meso Scale Discovery #L21SA-1). After a 1 hour incubation of the plate for 1 hour at room temperature with gentle mixing, the plate wells were washed 3 times with 50 mM Tris, pH 7.5, 150 mM NaCl, 0.02% Tween-20.
A 25 μl volume of 1:500 anti-P-Threonine Rabbit polyclonal Antibody plus 1:500 Goat-anti-Rabbit Sulfo Tag Antibody (Meso Scale Discovery R32AB-1) in 50 mM Tris, pH 7.5, 150 mM NaCl, 0.02% Tween-20 plus 2% BSA was then added to each well. After a 1-hour incubation of the plate for 1 hour at room temperature with gentle mixing, the plate wells were washed, 3 times with 50 mM Tris, pH 7.5, 150 mM NaCl, 0.02% Tween-20.

[2] = Kinetic solubility assay (CLND), pH 6.8; type: physicochemical; conditions: aqueous buffer, kinetic from dmso stock; potassium phosphate buffer pH 6.8, 2% DMSO, 24 hours at ambient temperature
[3] = target: MDR1 (Homo sapiens (Human), UniProt P08183); assay: in vitro; conditions: MDCK-MDR1
Chain of MDR1 (P08183 whole entry): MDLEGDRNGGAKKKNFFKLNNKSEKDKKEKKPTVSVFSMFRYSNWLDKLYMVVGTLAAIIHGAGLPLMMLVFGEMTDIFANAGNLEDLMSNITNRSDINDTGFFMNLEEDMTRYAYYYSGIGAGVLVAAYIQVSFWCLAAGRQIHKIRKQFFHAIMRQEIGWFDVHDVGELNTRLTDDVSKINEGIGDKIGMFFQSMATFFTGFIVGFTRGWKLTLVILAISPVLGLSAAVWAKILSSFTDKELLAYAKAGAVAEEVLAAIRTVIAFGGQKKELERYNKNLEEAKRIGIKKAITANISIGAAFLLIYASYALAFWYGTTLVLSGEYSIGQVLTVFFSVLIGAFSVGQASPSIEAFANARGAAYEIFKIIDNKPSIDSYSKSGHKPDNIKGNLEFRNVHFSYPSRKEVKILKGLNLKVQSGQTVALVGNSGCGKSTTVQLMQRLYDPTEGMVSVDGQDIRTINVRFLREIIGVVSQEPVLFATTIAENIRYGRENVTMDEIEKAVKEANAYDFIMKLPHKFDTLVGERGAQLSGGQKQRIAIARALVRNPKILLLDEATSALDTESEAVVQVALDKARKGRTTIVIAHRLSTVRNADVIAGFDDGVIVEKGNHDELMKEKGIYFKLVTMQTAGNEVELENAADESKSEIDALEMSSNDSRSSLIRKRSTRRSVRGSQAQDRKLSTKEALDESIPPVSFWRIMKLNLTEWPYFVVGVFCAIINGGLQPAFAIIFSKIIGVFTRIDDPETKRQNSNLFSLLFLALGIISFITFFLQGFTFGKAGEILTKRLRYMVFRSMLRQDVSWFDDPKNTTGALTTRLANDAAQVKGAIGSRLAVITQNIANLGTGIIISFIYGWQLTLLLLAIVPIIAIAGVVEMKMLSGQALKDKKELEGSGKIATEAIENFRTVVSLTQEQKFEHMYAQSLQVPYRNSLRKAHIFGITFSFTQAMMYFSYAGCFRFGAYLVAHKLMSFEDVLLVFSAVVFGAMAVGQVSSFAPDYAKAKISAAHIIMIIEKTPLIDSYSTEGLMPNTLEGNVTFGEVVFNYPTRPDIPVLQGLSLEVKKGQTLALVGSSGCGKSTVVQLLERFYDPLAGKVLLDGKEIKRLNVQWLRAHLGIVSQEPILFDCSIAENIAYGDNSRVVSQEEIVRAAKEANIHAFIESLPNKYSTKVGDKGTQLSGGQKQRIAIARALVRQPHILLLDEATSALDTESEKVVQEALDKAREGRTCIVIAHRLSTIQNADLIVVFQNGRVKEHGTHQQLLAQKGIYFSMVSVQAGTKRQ

Chain of IRAK4 (Q9NWZ3 whole entry): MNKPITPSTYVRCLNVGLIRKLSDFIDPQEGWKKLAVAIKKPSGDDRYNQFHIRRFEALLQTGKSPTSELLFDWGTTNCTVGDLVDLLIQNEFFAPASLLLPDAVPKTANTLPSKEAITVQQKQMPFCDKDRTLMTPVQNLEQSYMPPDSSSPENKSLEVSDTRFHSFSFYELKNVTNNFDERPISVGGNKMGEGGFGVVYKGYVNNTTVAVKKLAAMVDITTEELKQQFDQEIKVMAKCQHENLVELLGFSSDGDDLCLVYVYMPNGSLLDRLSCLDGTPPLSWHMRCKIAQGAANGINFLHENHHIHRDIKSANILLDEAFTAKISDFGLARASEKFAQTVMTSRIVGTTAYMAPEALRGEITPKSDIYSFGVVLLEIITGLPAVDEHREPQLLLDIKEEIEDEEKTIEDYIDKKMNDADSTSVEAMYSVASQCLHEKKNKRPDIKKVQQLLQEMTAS

Structure (SMILES) | IC50 [1] [nM] | solubility kinetic at 24 h [2] [µg/mL] | efflux ratio at 120 min, 1 μM [3]
CC(Oc1cc2nc(C34COC(C)(C3)C4)cn2cc1C(=O)Nc1cccn(C2CC2)c1=O)C(F)F [Example 102, (S)—N-(1-cyclopropyl-2-oxo-1,2-dihydropyridin-3-yl)-7-((1,1-difluoropropan-2-yl)oxy)-2-(1-methyl-2-oxabicyclo[2.1.1]hexan-4-yl)imidazo[1,2-a]pyridine-6-carboxamide] | 0.3 | 69.3 (≈ 143 µM) | 10.8
CC12CC(c3cn4cc(C(=O)Nc5cccn(C6CC6)c5=O)c(OC5CC5)cc4n3)(CO1)C2 [Example 104, 7-cyclopropoxy-N-(1-cyclopropyl-2-oxo-1,2-dihydropyridin-3-yl)-2-(1-methyl-2-oxabicyclo[2.1.1]hexan-4-yl)imidazo[1,2-a]pyridine-6-carboxamide] | 1.7 | 74.5 (≈ 167 µM) | 4.3
CC(C)Oc1cc2nc([C@@]34CC[C@@](C)(C3)OC4)cn2cc1C(=O)Nc1cccn([C@@H]2C[C@H]2F)c1=O [Example 116, N-(1-((1R,2R)-2-fluorocyclopropyl)-2-oxo-1,2-dihydropyridin-3-yl)-7-isopropoxy-2-((1S,4R)-1-methyl-2-oxabicyclo[2.2.1]heptan-4-yl)imidazo[1,2-a]pyridine-6-carboxamide] | 0.6 | 55.6 (≈ 116 µM) | 5.3
COCC12CC(c3cn4cc(C(=O)Nc5cccn([C@H]6C[C@H]6F)c5=O)c(OC5CCC5)nc4n3)(CO1)C2 [Example 128, 7-cyclobutoxy-N-(1-((1S,2R)-2-fluorocyclopropyl)-2-oxo-1,2-dihydropyridin-3-yl)-2-(1-(methoxymethyl)-2-oxabicyclo[2.1.1]hexan-4-yl)imidazo[1,2-a]pyrimidine-6-carboxamide] | 0.3 | 72.5 (≈ 142 µM) | 20.8
CC(C)Oc1cc2nc(C34COC(C)(C3)C4)cn2cc1C(=O)Nc1cccn([C@H]2C[C@H]2C)c1=O [Example 134, 7-isopropoxy-2-(1-methyl-2-oxabicyclo[2.1.1]hexan-4-yl)-N-(1-((1S,2R)-2-methylcyclopropyl)-2-oxo-1,2-dihydropyridin-3-yl)imidazo[1,2-a]pyridine-6-carboxamide] | 0.5 | 38.6 (≈ 83.5 µM) | 4.4
CC(C)Oc1cc2nc(C34COC(C)(C3)C4)cn2cc1C(=O)Nc1cccn([C@@H]2C[C@H]2C)c1=O [Example 139, 7-isopropoxy-2-(1-methyl-2-oxabicyclo[2.1.1]hexan-4-yl)-N-(1-((1R,2R)-2-methylcyclopropyl)-2-oxo-1,2-dihydropyridin-3-yl)imidazo[1,2-a]pyridine-6-carboxamide] | 0.5 | 38.4 (≈ 83 µM) | 3
CC(C)Oc1c(C(=O)Nc2cccn([C@H]3C[C@@H]3C)c2=O)cn2cc(C34COC(C)(C3)C4)nc2c1F [Example 146, 8-fluoro-7-isopropoxy-2-(1-methyl-2-oxabicyclo[2.1.1]hexan-4-yl)-N-(1-((1S,2S)-2-methylcyclopropyl)-2-oxo-1,2-dihydropyridin-3-yl)imidazo[1,2-a]pyridine-6-carboxamide] | 0.9 | 29.7 (≈ 61.8 µM) | 1.7
CC(C)Oc1cc2nc([C@]34CC[C@](C)(C3)OC4)cn2cc1C(=O)Nc1cccn([C@H]2C[C@H]2F)c1=O [Example 171, N-(1-((1S,2R)-2-fluorocyclopropyl)-2-oxo-1,2-dihydropyridin-3-yl)-7-isopropoxy-2-((1R,4S)-1-methyl-2-oxabicyclo[2.2.1]heptan-4-yl)imidazo[1,2-a]pyridine-6-carboxamide] | 0.2 | 47.9 (≈ 99.7 µM) | 9.8
